We go through 53 compounds from publication PMC6057649, “Development of NanoLuc-PEST expressing Leishmania mexicana as a new drug discovery tool for axenic- and intramacrophage-based assays” (PLoS Neglected Tropical Diseases, 2018).

The assay has as its system NanoLuc-PEST expressing L. mexicana axenic amastigotes. Kind of assay: microbe, parasite or virus in culture. As to conditions: for Relative Bioluminescence (%): 72 hours, relative to DMSO only control, n = 4; for EC50: hit compounds from the axenic amastigote screen, S3 Table, read-out: EC50, Axenic Amastigotes. The format is cell-based.

Consider `Cc1nc(-c2ccccn2)nc(NCCc2ccc(S(C)(=O)=O)cc2)c1Cl` [MMV658993], for which the “Relative Bioluminescence (%)” value runs as follows: (2 µM compound) 93.82%; (10 µM compound) 64.93%.

Consider `Cc1nc(-c2ccccn2)nc(N2CCC(Cc3ccccc3)C2)c1Cl` (stereo not shown) [MMV659004], for which the “Relative Bioluminescence (%)” value is, setting by setting: (2 µM compound) 73.83%; (10 µM compound) -1.44%.

Regarding `FC(F)(F)c1cc(NCCc2ccccc2)nc(-c2ccccn2)n1` [MMV659010], the “Relative Bioluminescence (%)” value runs as follows: (2 µM compound) 95.95%; (10 µM compound) 88.01%.

For `Brc1cncc(-c2cc(NCCCn3ccnc3)nc(-c3ccccc3)n2)c1` [MMV661713], the “Relative Bioluminescence (%)” value runs as follows: (2 µM compound) 76.01%; (10 µM compound) 83.31%.

As to `Clc1cccc(C(c2ccc(CN3CCNCC3)cc2)n2ccnc2)c1` (stereo not shown) [MMV663250], the “Relative Bioluminescence (%)” value stood at 96.52% (2 µM compound) and 69.77% (10 µM compound).

Consider `O=C(NCCN1CCCC1)c1cc(NCCCCN2CCC(F)(F)CC2)nc2ccc(Cl)cc12` [MMV667494], for which the “Relative Bioluminescence (%)” value reads like this: (2 µM compound) 55.75%; (10 µM compound) 61.89%.

For `Nc1ncc(-c2ccc(C(F)(F)F)nc2)cc1-c1ccc(C(F)(F)F)nc1` [MMV668727], the “Relative Bioluminescence (%)” value (2 µM compound) was found to be 68.46% and the “Relative Bioluminescence (%)” value (10 µM compound) stood at 78.89%.

`Cc1[nH]c2cc(F)cc(F)c2c(=O)c1-c1ccc(Oc2ccc(OC(F)(F)F)cc2)cc1` [MMV671636]: the “Relative Bioluminescence (%)” value (2 µM compound) is 40.19% and the “Relative Bioluminescence (%)” value (10 µM compound) is 3.97%.

Take `COc1ccc(OC)c(NCc2ccc3nc(N)nc(N)c3c2Cl)c1` [MMV675968]: the “Relative Bioluminescence (%)” value (2 µM compound) is 100.09% and the “Relative Bioluminescence (%)” value (10 µM compound) was 86.04%.

For `CC(C)(C)c1ccc(N[C@@H]2CCCC[C@H]2NC(=O)c2ccco2)cc1` [MMV675969], the “Relative Bioluminescence (%)” value reads like this: (2 µM compound) 104.76%; (10 µM compound) 77.56%.

For the compound `COc1ccc(-c2nn(C(C)C)c3ncnc(N)c23)cc1OC` [MMV675993], the “Relative Bioluminescence (%)” value by setting is: (2 µM compound) 66.21%; (10 µM compound) 27.37%.

For the compound `Clc1ccc(-n2cc(COc3ccnc4ccccc34)nn2)cc1` [MMV675994], the “Relative Bioluminescence (%)” value by setting is: (2 µM compound) 74.96%; (10 µM compound) 81.16%.

Consider `COc1ccc(N(CCc2cccc(C)n2)C(C)=O)cc1` [MMV675995], for which the “Relative Bioluminescence (%)” value by setting is: (2 µM compound) 51.88%; (10 µM compound) 31.11%.

For `COc1ccc(N(CCc2cccc(C)n2)C(=O)C2CCCCC2)cc1` [MMV675996], the “Relative Bioluminescence (%)” value (2 µM compound) is reported as 63.13% and the “Relative Bioluminescence (%)” value (10 µM compound) came to 25.83%.

For the compound `N#CCN(CCCCN1CCN(c2ccc(F)cc2)CC1)C(=O)OCc1ccccc1` [MMV675997], the “Relative Bioluminescence (%)” value is 116.18% (2 µM compound) and 97.48% (10 µM compound).

Take `COc1ccc(C(=N)N)cc1-c1cn(-c2ccc(C(=N)N)cc2)nn1` [MMV675998]: the “Relative Bioluminescence (%)” value was 92.81% (2 µM compound) and 65.21% (10 µM compound).

In the case of `O=C(Nc1c(O)cccc1-c1nc2c(C(=O)O)cccc2o1)c1cc(-c2ccccc2)on1` [MMV676008], the “Relative Bioluminescence (%)” value runs as follows: (2 µM compound) 79.00%; (10 µM compound) -1.15%.

Turning to `Clc1ccc(Cl)c(CO[C@H]2CCCC[C@@H]2n2ccnc2)c1` [MMV676048], the “Relative Bioluminescence (%)” value (2 µM compound) is 104.27% and the “Relative Bioluminescence (%)” value (10 µM compound) is recorded as 53.90%.

With `CS(=O)(=O)N1CCC(Cn2nc(Cc3cccc4ccccc34)c3c(N)ncnc32)CC1` [MMV676050], the “Relative Bioluminescence (%)” value reads like this: (2 µM compound) 74.33%; (10 µM compound) 42.99%.

On to `COc1cc(NC(=O)Cc2nn(C)c(=O)c3ccccc23)ccc1Cl` [MMV676053], for which the “Relative Bioluminescence (%)” value is, setting by setting: (2 µM compound) 106.26%; (10 µM compound) 78.76%.

With `CC(C)(C)OC(=O)N1CCN(c2cc(-c3ccc(Oc4ccccc4)cc3)n[nH]2)CC1` [MMV676057], the “Relative Bioluminescence (%)” value is, setting by setting: (2 µM compound) 119.16%; (10 µM compound) 36.52%.

As for `CCCCc1ccc(NC(=O)Nc2ccc(O[C@H]3CCCC[C@@H]3N(C)c3ccccc3)c(F)c2)cc1` [MMV676063], the “Relative Bioluminescence (%)” value came to 99.42% (2 µM compound) and 66.65% (10 µM compound).

For the compound `CC(=O)N(CCN(C(=O)c1ccc(F)cc1)c1ccccc1)c1ccccc1` [MMV676064], the “Relative Bioluminescence (%)” value by setting is: (2 µM compound) 105.34%; (10 µM compound) 123.90%.

Regarding `Clc1cccc(CO[C@H]2CCc3ccccc3[C@@H]2n2ccnn2)c1` [MMV676159], the “Relative Bioluminescence (%)” value (2 µM compound) amounted to 101.47% and the “Relative Bioluminescence (%)” value (10 µM compound) is reported as 98.27%.

In the case of `c1ccc(Oc2ccc(-c3cc(CN4CCOCC4)[nH]n3)cc2)cc1` [MMV676161], the “Relative Bioluminescence (%)” value (2 µM compound) is given as 108.65% and the “Relative Bioluminescence (%)” value (10 µM compound) amounted to 116.07%.

For `O=C(Nc1ccccc1-c1nc2c(C(=O)O)cccc2o1)c1ccccc1` [MMV676162], the EC50 turned out to be 960 nM. In addition, the “Relative Bioluminescence (%)” value (2 µM compound) stood at 7.36%. The “Relative Bioluminescence (%)” value (10 µM compound) was -0.97%.

For the compound `Nc1ncnc2c1c(Cc1cccc3ccccc13)nn2CC1CCNCC1` [MMV676182], the “Relative Bioluminescence (%)” value is listed as 78.18% (2 µM compound) and 53.64% (10 µM compound).

Consider `COC(=O)c1cccc2oc(-c3cccc(OC)c3NC(=O)c3cc(-c4ccccc4)on3)nc12` [MMV676186], for which the “Relative Bioluminescence (%)” value reads like this: (2 µM compound) 83.95%; (10 µM compound) 21.54%.

As for `CC(C)C(Oc1cccc2ccccc12)C(=O)O` (stereo not shown) [MMV676191], the “Relative Bioluminescence (%)” value reads like this: (2 µM compound) 107.96%; (10 µM compound) 94.76%.

For `O=C(c1ccc(F)cc1)N(CCNc1ccccc1)c1ccccc1` [MMV676204], the “Relative Bioluminescence (%)” value (2 µM compound) is 116.49% and the “Relative Bioluminescence (%)” value (10 µM compound) came to 99.37%.

With `CN1CCN(c2nccc3nc(-c4ccc(F)c(F)c4)[nH]c23)CC1` [MMV676260], the “Relative Bioluminescence (%)” value runs as follows: (2 µM compound) 69.43%; (10 µM compound) 85.22%.

With `C[C@H](C(N)=O)N1CCCC[C@H]1c1ccc(OCc2cccc(F)c2)cc1` [MMV676269], the “Relative Bioluminescence (%)” value is, setting by setting: (2 µM compound) 85.78%; (10 µM compound) 76.17%.

`C[C@H](C(N)=O)N1CCCC[C@@H]1c1ccc(OCc2cccc(F)c2)cc1` [MMV676270]: the “Relative Bioluminescence (%)” value reads like this: (2 µM compound) 41.26%; (10 µM compound) 18.00%.

In the case of `Cc1c[nH]c(CCNC(=O)c2cc(-c3ccc(Cl)cc3)cs2)n1` [MMV676350], the “Relative Bioluminescence (%)” value is, setting by setting: (2 µM compound) 84.72%; (10 µM compound) 104.94%.

`Nc1ncc(Br)cc1-c1nc2cc(Cl)cnc2[nH]1` [MMV676358]: the “Relative Bioluminescence (%)” value was determined as 93.00% (2 µM compound) and 64.12% (10 µM compound).

In the case of `Brc1c(-c2ccc3c(c2)OCO3)nc2ncccn12` [MMV676377], the “Relative Bioluminescence (%)” value came to 78.14% (2 µM compound) and 74.59% (10 µM compound).

On to `COc1cccc(OCC(=O)c2ccc(Br)cc2)c1` [MMV676379], for which the “Relative Bioluminescence (%)” value by setting is: (2 µM compound) 81.42%; (10 µM compound) 79.42%.

Take `CC(=O)Nc1ccc(NC(=O)c2cc(-c3cc(Cl)ccc3O)n[nH]2)cc1` [MMV676380]: the “Relative Bioluminescence (%)” value reads like this: (2 µM compound) 84.54%; (10 µM compound) 97.79%.

Turning to `Cn1ncc2c(N3CCOCC3)nc(NCCc3c[nH]c4ccccc34)nc21` [MMV676382], the “Relative Bioluminescence (%)” value runs as follows: (2 µM compound) 73.92%; (10 µM compound) 64.75%.

For the compound `CCC(Sc1nc2ccccc2o1)C(=O)Nc1nccs1` (stereo not shown) [MMV676383], the “Relative Bioluminescence (%)” value (2 µM compound) is 136.33% and the “Relative Bioluminescence (%)” value (10 µM compound) came out at 127.92%.

`N#Cc1nc(-c2ccccc2F)oc1NCCc1ccccc1` [MMV676384]: the “Relative Bioluminescence (%)” value is, setting by setting: (2 µM compound) 51.03%; (10 µM compound) 59.90%.

For `Cc1cccc(Cn2ccc(NC(=O)c3ccc4c(c3)OCO4)n2)c1` [MMV676386], the “Relative Bioluminescence (%)” value (2 µM compound) is given as 127.03% and the “Relative Bioluminescence (%)” value (10 µM compound) is 120.21%.

In the case of `COc1cccc(-n2nnnc2S(=O)(=O)Cc2ccccc2)c1` [MMV676388], the EC50 was 730 nM. Also, the “Relative Bioluminescence (%)” value (2 µM compound) is on record as 0.56%. For the same compound, the “Relative Bioluminescence (%)” value (10 µM compound) came out at 0.16%.

In the case of `O=C(c1n[nH]c2c1CCCC2)N1CCN(Cc2ccc3c(c2)OCO3)CC1` [MMV676389], the “Relative Bioluminescence (%)” value is 67.21% (2 µM compound) and 71.87% (10 µM compound).

As to `O=C(Nc1cccnc1)c1c(O)c2cccc3c2n(c1=O)CC3` [MMV676395], the “Relative Bioluminescence (%)” value runs as follows: (2 µM compound) 63.89%; (10 µM compound) 0.76%.

`CCS(=O)(=O)N(Cc1ccco1)Cc1cc2ccc(C)cc2[nH]c1=O` [MMV676398]: the “Relative Bioluminescence (%)” value is, setting by setting: (2 µM compound) 115.47%; (10 µM compound) 84.49%.

For the compound `c1coc(CNc2nc(N3CCCCC3)nc3ccccc23)c1` [MMV676401], the “Relative Bioluminescence (%)” value was determined as 91.23% (2 µM compound) and 75.18% (10 µM compound).

For `CC(C)n1ncc2c(C(=O)NCC(c3cccs3)N3CCOCC3)cc(-c3ccccc3)nc21` (stereo not shown) [MMV676406], the “Relative Bioluminescence (%)” value was determined as 54.35% (2 µM compound) and 35.79% (10 µM compound).

As to `O=C(COc1cccc(F)c1)Nc1nc(-c2ccccn2)cs1` [MMV676409], the “Relative Bioluminescence (%)” value (2 µM compound) came to 37.25% and the “Relative Bioluminescence (%)” value (10 µM compound) came to 12.84%.

For the compound `CC(Oc1ccccc1)C(=O)Nc1nc(-c2ccccn2)cs1` (stereo not shown) [MMV676411], the “Relative Bioluminescence (%)” value is 48.75% (2 µM compound) and -0.81% (10 µM compound).

As to `N#Cc1nc(-c2ccccc2)oc1S(=O)(=O)c1ccc(Cl)cc1` [MMV676412], the EC50 was 260 nM. In addition, the “Relative Bioluminescence (%)” value (2 µM compound) was 0.46%. In addition, the “Relative Bioluminescence (%)” value (10 µM compound) was -0.09%.

For the compound `Cc1ccc(NC(=O)CC2COc3ccccc3O2)cc1Cl` (stereo not shown) [MMV676431], the “Relative Bioluminescence (%)” value (2 µM compound) turned out to be 104.86% and the “Relative Bioluminescence (%)” value (10 µM compound) was found to be 65.31%.

Turning to `Cc1ccc2nc(Cl)c(CNCc3cccs3)cc2c1` [MMV676439], the “Relative Bioluminescence (%)” value (2 µM compound) turned out to be 83.45% and the “Relative Bioluminescence (%)” value (10 µM compound) was 95.86%.

Usually EC50 stands for the concentration giving half of the maximal effect.
